In patent publication US20260285850A1, “SUBSTITUTED OXAZOLIDINONES AND IMIDAZOLINONES AS HERBICIDES” (FMC CORPORATION, priority 2023, published 2026):

Columns and labels:
Assay type in all cases: in vivo
[1] = test system: sedge, umbrella (small-flower umbrella sedge, Cyperus difformis); experiment: Test B flooded paddy test, visual plant response rating 0-100; details: 250 g ai/ha, Flood, applied to paddy water, evaluated after 13 days
Method in brief: (§1)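 Treatment occurs at the 2-leaf stage by adding compound to floodwater standing 3 cm above the soil, a level kept for the whole test. Plants stay in the greenhouse 13 days before visual comparison with controls.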

[2] = test system: barnyardgrass (Echinochloa crusgalli); experiment: as above; details: 250 g ai/ha, Flood, applied to paddy water, evaluated after 13 days
Method in brief: as §1

[3] = test system: ducksalad (Heteranthera limosa); experiment: as above; details: 250 g ai/ha, Flood, applied to paddy water, evaluated after 13 days
Method in brief: as §1

rice (Oryza sativa) = experiment: as above; details: 250 g ai/ha, Flood, applied to paddy water, evaluated after 13 days
Method in brief: as §1

[4] = test system: green foxtail (Setaria viridis); experiment: Test A preemergence soil spray, visual injury rating 0-100; details: 10 days, 0 = no effect, 100 = complete control
Method in brief: (§2)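 Preemergence directed soil spray or postemergence spray (2-10 cm, 1-2 leaf); loam/sand mix; compound in non-phytotoxic solvent + surfactant. Greenhouse, 10 d. Visual injury vs untreated, 0 = none, 100 = complete control.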

kochia (Bassia scoparia) [5] = experiment: as above; details: 10 days, 0 = no effect, 100 = complete control
Method in brief: as §2

[6] = test system: ragweed (common ragweed, Ambrosia artemisiifolia); experiment: as above; details: 10 days, 0 = no effect, 100 = complete control
Method in brief: as §2

corn (Zea mays) [7] = experiment: as above; details: 10 days, 0 = no effect, 100 = complete control
Method in brief: as §2

[8] = test system: oat, wild (wild oat, Avena fatua); experiment: as above; details: 10 days, 0 = no effect, 100 = complete control
Method in brief: as §2

[9] = test system: wheat (Triticum aestivum); experiment: as above; details: 10 days, 0 = no effect, 100 = complete control
Method in brief: as §2

[10] = test system: barnyardgrass (Echinochloa crus-galli); experiment: as above; details: 10 days, 0 = no effect, 100 = complete control
Method in brief: as §2

[11] = test system: blackgrass (Alopecurus myosuroides); experiment: as above; details: 10 days, 0 = no effect, 100 = complete control
Method in brief: as §2

[12] = test system: palmer (palmer amaranth, palmer pigweed, Amaranthus palmeri); experiment: as above; details: 10 days, 0 = no effect, 100 = complete control
Method in brief: as §2

[13] = test system: ryegrass, Italian (italian ryegrass, Lolium multiflorum); experiment: as above; details: 10 days, 0 = no effect, 100 = complete control
Method in brief: as §2

soybean (Glycine max) [14] = experiment: as above; details: 10 days, 0 = no effect, 100 = complete control
Method in brief: as §2

[15] = test system: green foxtail (Setaria viridis); experiment: Test A postemergence application, visual injury rating 0-100; details: Postemergence, 10 days, 0 is no effect, 100 is complete control
Method in brief: as §2

kochia (Bassia scoparia) [16] = experiment: as above; details: Postemergence, 10 days, 0 is no effect, 100 is complete control
Method in brief: as §2

[17] = test system: ragweed (common ragweed, Ambrosia artemisiifolia); experiment: as above; details: Postemergence, 10 days, 0 is no effect, 100 is complete control
Method in brief: as §2

corn (Zea mays) [18] = experiment: as above; details: Postemergence, 10 days, 0 is no effect, 100 is complete control
Method in brief: as §2

[19] = test system: horseweed (Erigeron canadensis); experiment: as above; details: Postemergence, 10 days, 0 is no effect, 100 is complete control
Method in brief: as §2

[20] = test system: oat, wild (wild oat, Avena fatua); experiment: as above; details: Postemergence, 10 days, 0 is no effect, 100 is complete control
Method in brief: as §2

[21] = test system: wheat (Triticum aestivum); experiment: as above; details: Postemergence, 10 days, 0 is no effect, 100 is complete control
Method in brief: as §2

[22] = test system: barnyardgrass (Echinochloa crus-galli); experiment: as above; details: Postemergence, 10 days, 0 is no effect, 100 is complete control
Method in brief: as §2

[23] = test system: galium (catchweed bedstraw, Galium aparine); experiment: as above; details: Postemergence, 10 days, 0 is no effect, 100 is complete control
Method in brief: as §2

[24] = test system: blackgrass (Alopecurus myosuroides); experiment: as above; details: Postemergence, 10 days, 0 is no effect, 100 is complete control
Method in brief: as §2

[25] = test system: palmer (palmer amaranth, palmer pigweed, Amaranthus palmeri); experiment: as above; details: Postemergence, 10 days, 0 is no effect, 100 is complete control
Method in brief: as §2

[26] = test system: ryegrass, Italian (italian ryegrass, Lolium multiflorum); experiment: as above; details: Postemergence, 10 days, 0 is no effect, 100 is complete control
Method in brief: as §2

soybean (Glycine max) [27] = experiment: as above; details: Postemergence, 10 days, 0 is no effect, 100 is complete control
Method in brief: as §2

CNC(=O)C1C=CC(NC(=O)C2(C)CN(c3cc(Cl)cc(Cl)c3)C(=O)O2)C1 (stereo not shown) [Compound 47]
Plant response rating, Sedge, Umbrella (0 to 100 scale, 0 is no effect and 100 is complete control) [1]: 0
Plant response rating, Barnyardgrass (0 to 100 scale, 0 is no effect and 100 is complete control) [2]: 0
Plant response rating, Ducksalad (0 to 100 scale, 0 is no effect and 100 is complete control) [3]: 30
Plant response rating, Rice (0 to 100 scale, 0 is no effect and 100 is complete control) (rice (Oryza sativa)): 0
Foxtail, Green plant response rating (0 to 100 scale) ([4]; 125 g ai/ha): 30
Foxtail, Green plant response rating (0 to 100 scale) ([4]; 500 g ai/ha): 100
Kochia plant response rating (0 to 100 scale) (kochia (Bassia scoparia) [5]; 125 g ai/ha): 90
Kochia plant response rating (0 to 100 scale) (kochia (Bassia scoparia) [5]; 500 g ai/ha): 100
Ragweed plant response rating (0 to 100 scale) ([6]; 125 g ai/ha): 40
Ragweed plant response rating (0 to 100 scale) ([6]; 500 g ai/ha): 60
Corn plant response rating (0 to 100 scale) (corn (Zea mays) [7]; 125 g ai/ha): 30
Corn plant response rating (0 to 100 scale) (corn (Zea mays) [7]; 500 g ai/ha): 70
Oat, Wild plant response rating (0 to 100 scale) ([8]; 125 g ai/ha): 90
Oat, Wild plant response rating (0 to 100 scale) ([8]; 500 g ai/ha): 90
Wheat plant response rating (0 to 100 scale) ([9]; 125 g ai/ha): 20
Wheat plant response rating (0 to 100 scale) ([9]; 500 g ai/ha): 80
Barnyardgrass plant response rating (0 to 100 scale) ([10]; 125 g ai/ha): 40
Barnyardgrass plant response rating (0 to 100 scale) ([10]; 500 g ai/ha): 100
Blackgrass plant response rating (0 to 100 scale) ([11]; 125 g ai/ha): 10
Blackgrass plant response rating (0 to 100 scale) ([11]; 500 g ai/ha): 90
Amaranth, Palmer plant response rating (0 to 100 scale) ([12]; 125 g ai/ha): 80
Amaranth, Palmer plant response rating (0 to 100 scale) ([12]; 500 g ai/ha): 100
Ryegrass, Italian plant response rating (0 to 100 scale) ([13]; 125 g ai/ha): 70
Ryegrass, Italian plant response rating (0 to 100 scale) ([13]; 500 g ai/ha): 90
Soybean plant response rating (0 to 100 scale) (soybean (Glycine max) [14]; 125 g ai/ha): 10
Soybean plant response rating (0 to 100 scale) (soybean (Glycine max) [14]; 500 g ai/ha): 0
Foxtail, Green plant response rating (0 to 100 scale) ([15]; 125 g ai/ha): 20
Foxtail, Green plant response rating (0 to 100 scale) ([15]; 500 g ai/ha): 90
Kochia plant response rating (0 to 100 scale) (kochia (Bassia scoparia) [16]; 125 g ai/ha): 70
Kochia plant response rating (0 to 100 scale) (kochia (Bassia scoparia) [16]; 500 g ai/ha): 80
Ragweed plant response rating (0 to 100 scale) ([17]; 125 g ai/ha): 40
Ragweed plant response rating (0 to 100 scale) ([17]; 500 g ai/ha): 50
Corn plant response rating (0 to 100 scale) (corn (Zea mays) [18]; 125 g ai/ha): 80
Corn plant response rating (0 to 100 scale) (corn (Zea mays) [18]; 500 g ai/ha): 90
Horseweed plant response rating (0 to 100 scale) ([19]; 125 g ai/ha): 50
Horseweed plant response rating (0 to 100 scale) ([19]; 500 g ai/ha): 40
Oat, Wild plant response rating (0 to 100 scale) ([20]; 125 g ai/ha): 20
Oat, Wild plant response rating (0 to 100 scale) ([20]; 500 g ai/ha): 20
Wheat plant response rating (0 to 100 scale) ([21]; 125 g ai/ha): 10
Wheat plant response rating (0 to 100 scale) ([21]; 500 g ai/ha): 10
Barnyardgrass plant response rating (0 to 100 scale) ([22]; 125 g ai/ha): 0
Barnyardgrass plant response rating (0 to 100 scale) ([22]; 500 g ai/ha): 80
Galium plant response rating (0 to 100 scale) ([23]; 125 g ai/ha): 80
Galium plant response rating (0 to 100 scale) ([23]; 500 g ai/ha): 80
Blackgrass plant response rating (0 to 100 scale) ([24]; 125 g ai/ha): 20
Blackgrass plant response rating (0 to 100 scale) ([24]; 500 g ai/ha): 70
Amaranth, Palmer / Pigweed, Palmer plant response rating (0 to 100 scale) ([25]; 125 g ai/ha): 80
Amaranth, Palmer / Pigweed, Palmer plant response rating (0 to 100 scale) ([25]; 500 g ai/ha): 100
Ryegrass, Italian plant response rating (0 to 100 scale) ([26]; 125 g ai/ha): 30
Ryegrass, Italian plant response rating (0 to 100 scale) ([26]; 500 g ai/ha): 70
Soybean plant response rating (0 to 100 scale) (soybean (Glycine max) [27]; 125 g ai/ha): 30
Soybean plant response rating (0 to 100 scale) (soybean (Glycine max) [27]; 500 g ai/ha): 50
